As a reminder, the IC50 is the concentration needed to halve the response being measured. Higher therefore signals weaker potency.

Molecules are shown by their SMILES.

Results on five compounds are retold here after ChEMBL document CHEMBL1212896, “Discovery of novel cyanodihydropyridines as potent mineralocorticoid receptor antagonists” (J Med Chem, 2010).

One data set deals with T1, Glucocorticoid receptor (Homo sapiens, UniProt P04150).
T1 sequence (P04150 whole entry): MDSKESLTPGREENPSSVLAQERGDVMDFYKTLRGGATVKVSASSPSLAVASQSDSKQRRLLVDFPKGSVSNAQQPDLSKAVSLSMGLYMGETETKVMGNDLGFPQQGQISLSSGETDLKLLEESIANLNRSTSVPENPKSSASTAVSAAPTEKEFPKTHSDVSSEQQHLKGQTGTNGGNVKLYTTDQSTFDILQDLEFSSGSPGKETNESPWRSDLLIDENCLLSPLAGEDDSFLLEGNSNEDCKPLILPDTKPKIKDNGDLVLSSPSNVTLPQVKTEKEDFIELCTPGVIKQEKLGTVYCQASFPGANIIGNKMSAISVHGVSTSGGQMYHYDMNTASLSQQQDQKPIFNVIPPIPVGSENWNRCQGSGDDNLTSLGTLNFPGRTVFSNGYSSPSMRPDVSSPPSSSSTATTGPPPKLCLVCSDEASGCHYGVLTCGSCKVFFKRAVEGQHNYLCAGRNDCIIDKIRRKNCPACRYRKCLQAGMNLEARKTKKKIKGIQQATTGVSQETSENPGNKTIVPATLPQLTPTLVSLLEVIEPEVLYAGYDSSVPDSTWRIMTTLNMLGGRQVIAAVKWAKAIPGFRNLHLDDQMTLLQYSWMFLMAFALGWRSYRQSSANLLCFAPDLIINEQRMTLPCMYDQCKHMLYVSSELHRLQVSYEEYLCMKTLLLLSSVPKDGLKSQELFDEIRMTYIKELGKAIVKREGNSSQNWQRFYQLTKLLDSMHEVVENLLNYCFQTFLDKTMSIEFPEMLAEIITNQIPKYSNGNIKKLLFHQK
Description: Antagonist activity at glucocorticoid receptor LBD expressed in human HUH7 cells coexpressing GAL4 by luciferase reporter gene assay. In kind it is functional, cell-based, Huh-7. A general note: Reporter assays use an easily measured gene product as a stand-in for the process of interest.
Take `COC(=O)C1=C(C)NC(C)=C(C#N)C1c1ccc(F)cc1Cl` (stereo not given): the midpoint of inhibition, the IC50, lay at 5100 nM.
Same read-out and setting: for `COC(=O)C1=C(Cn2cnnn2)NC(C)=C(C#N)C1c1ccc(F)cc1Cl` (stereo not given) the value was 1300 nM.
Still for that read-out and setting: for `COC(=O)C1=C(Cn2ccnc2)NC(C)=C(C#N)C1c1ccc(F)cc1Cl` (stereo not given) the value was 2200 nM; for `COC(=O)C1=C(Cn2cncn2)NC(C)=C(C#N)C1c1ccc(F)cc1Cl` (stereo not given), 2900 nM.
On the same count and under the same terms, for `CCCC1=C(C(=O)OC)C(c2ccccc2Cl)C(C#N)=C(C)N1` (stereo not given) the value was 1600 nM.

The target in the next data set is T2, Mineralocorticoid receptor (Homo sapiens, UniProt P08235).
T2 sequence (P08235 whole entry): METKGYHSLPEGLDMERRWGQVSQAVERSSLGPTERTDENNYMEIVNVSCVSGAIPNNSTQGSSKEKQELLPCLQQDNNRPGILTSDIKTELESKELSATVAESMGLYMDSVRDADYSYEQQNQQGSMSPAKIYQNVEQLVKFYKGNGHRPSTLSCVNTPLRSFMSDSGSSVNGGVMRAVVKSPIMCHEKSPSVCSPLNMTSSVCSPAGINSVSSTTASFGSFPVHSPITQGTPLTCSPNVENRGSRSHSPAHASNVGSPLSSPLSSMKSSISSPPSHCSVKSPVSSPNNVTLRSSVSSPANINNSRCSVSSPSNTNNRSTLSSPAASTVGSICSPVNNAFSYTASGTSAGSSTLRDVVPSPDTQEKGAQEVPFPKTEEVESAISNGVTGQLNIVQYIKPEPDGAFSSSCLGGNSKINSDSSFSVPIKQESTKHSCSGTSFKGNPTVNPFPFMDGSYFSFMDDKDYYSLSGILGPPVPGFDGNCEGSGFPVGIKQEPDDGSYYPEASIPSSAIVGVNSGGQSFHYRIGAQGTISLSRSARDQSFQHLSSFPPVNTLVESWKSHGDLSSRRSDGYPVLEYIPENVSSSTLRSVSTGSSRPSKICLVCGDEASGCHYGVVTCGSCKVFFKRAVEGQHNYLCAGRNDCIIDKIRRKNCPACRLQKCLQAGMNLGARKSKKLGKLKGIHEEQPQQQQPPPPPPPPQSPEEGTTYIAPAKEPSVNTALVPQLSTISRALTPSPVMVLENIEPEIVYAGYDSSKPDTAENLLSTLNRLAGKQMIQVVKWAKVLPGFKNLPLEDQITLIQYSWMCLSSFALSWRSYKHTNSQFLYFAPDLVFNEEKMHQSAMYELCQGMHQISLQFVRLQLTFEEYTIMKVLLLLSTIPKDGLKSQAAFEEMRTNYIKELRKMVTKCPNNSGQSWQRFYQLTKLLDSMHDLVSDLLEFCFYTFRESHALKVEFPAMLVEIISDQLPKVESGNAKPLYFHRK
Description: Antagonist activity at mineralocorticoid receptor LBD expressed in human HUH7 cells coexpressing GAL4 by luciferase reporter gene assay
As to `COC(=O)C1=C(C)NC(C)=C(C#N)C1c1ccc(F)cc1Cl` (stereo not given), the IC50 worked out at 92 nM.
On the same count and under the same terms, next, `COC(=O)C1=C(Cn2cnnn2)NC(C)=C(C#N)C1c1ccc(F)cc1Cl` (stereo not given): 64 nM; `COC(=O)C1=C(Cn2ccnc2)NC(C)=C(C#N)C1c1ccc(F)cc1Cl` (stereo not given): 9 nM.
The same measure, in the same setting: for `COC(=O)C1=C(Cn2cncn2)NC(C)=C(C#N)C1c1ccc(F)cc1Cl` (stereo not given) the value was 123 nM; for `CCCC1=C(C(=O)OC)C(c2ccccc2Cl)C(C#N)=C(C)N1` (stereo not given), 64 nM.

The next data set concerns the target T3, Androgen receptor (Homo sapiens, UniProt P10275).
T3 sequence (P10275 whole entry): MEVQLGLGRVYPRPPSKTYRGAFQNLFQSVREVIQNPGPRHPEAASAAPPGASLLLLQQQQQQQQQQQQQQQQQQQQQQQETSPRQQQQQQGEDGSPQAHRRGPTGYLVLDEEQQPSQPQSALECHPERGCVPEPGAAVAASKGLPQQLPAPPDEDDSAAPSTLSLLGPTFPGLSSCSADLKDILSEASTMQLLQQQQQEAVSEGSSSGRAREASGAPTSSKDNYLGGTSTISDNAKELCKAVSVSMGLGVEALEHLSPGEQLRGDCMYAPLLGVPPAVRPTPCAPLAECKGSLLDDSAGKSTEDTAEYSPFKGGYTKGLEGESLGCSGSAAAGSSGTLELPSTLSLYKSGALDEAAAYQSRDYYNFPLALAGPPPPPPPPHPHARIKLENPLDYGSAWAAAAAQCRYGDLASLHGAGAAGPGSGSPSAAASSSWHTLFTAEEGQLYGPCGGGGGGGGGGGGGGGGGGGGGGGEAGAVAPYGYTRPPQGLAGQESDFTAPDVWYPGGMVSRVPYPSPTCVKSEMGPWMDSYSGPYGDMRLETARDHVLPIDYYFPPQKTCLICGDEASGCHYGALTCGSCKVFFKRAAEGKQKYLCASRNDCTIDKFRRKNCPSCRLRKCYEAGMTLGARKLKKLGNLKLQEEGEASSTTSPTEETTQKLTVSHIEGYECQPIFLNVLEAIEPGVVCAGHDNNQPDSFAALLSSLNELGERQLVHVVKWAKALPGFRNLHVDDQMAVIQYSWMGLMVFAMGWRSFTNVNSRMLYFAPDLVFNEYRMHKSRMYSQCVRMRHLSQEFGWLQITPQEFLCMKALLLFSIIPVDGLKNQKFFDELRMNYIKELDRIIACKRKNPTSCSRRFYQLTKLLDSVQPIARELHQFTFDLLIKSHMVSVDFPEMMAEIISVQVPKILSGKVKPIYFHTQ
Nature of the data set: Antagonist activity at androgen receptor LBD expressed in human HUH7 cells coexpressing GAL4 by luciferase reporter gene assay. The class given is functional, cell-based, Huh-7.
`COC(=O)C1=C(C)NC(C)=C(C#N)C1c1ccc(F)cc1Cl` (stereo not given) registered an IC50 of 300 nM.
Same read-out and setting: next, `COC(=O)C1=C(Cn2cnnn2)NC(C)=C(C#N)C1c1ccc(F)cc1Cl` (stereo not given): 2700 nM.
Still for that read-out and setting: next, `COC(=O)C1=C(Cn2ccnc2)NC(C)=C(C#N)C1c1ccc(F)cc1Cl` (stereo not given): 3900 nM.
The same measure, in the same setting: next, `COC(=O)C1=C(Cn2cncn2)NC(C)=C(C#N)C1c1ccc(F)cc1Cl` (stereo not given): 4600 nM; `CCCC1=C(C(=O)OC)C(c2ccccc2Cl)C(C#N)=C(C)N1` (stereo not given): 300 nM.

The next data set deals with Cytochrome P450 3A4 (Homo sapiens, UniProt P08684). Nature of the data set: Inhibition of CYP3A4. The class given is ADME.
Cytochrome P450 3A4, sequence (P08684 whole entry): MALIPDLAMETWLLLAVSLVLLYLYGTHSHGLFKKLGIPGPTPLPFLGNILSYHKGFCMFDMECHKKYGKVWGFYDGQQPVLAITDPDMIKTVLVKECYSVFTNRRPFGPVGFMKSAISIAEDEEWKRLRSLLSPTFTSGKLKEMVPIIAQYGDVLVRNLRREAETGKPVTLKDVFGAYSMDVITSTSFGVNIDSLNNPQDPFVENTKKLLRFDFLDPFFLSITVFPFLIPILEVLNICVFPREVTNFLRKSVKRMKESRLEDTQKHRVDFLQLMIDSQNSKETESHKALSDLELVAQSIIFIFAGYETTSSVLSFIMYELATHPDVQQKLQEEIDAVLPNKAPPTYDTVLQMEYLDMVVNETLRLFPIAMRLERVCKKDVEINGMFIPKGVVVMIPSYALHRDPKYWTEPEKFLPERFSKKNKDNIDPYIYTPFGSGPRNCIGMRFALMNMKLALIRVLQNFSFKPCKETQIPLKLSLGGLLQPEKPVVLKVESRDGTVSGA
Regarding `COC(=O)C1=C(C)NC(C)=C(C#N)C1c1ccc(F)cc1Cl` (stereo not given), the “inhibition (INH)” value is recorded as 40%.
On to `COC(=O)C1=C(Cn2cnnn2)NC(C)=C(C#N)C1c1ccc(F)cc1Cl` (stereo not given), for which half-maximal inhibition (IC50) required 1200 nM. That is a single-digit micromolar value.
Same read-out and setting: next, `COC(=O)C1=C(Cn2ccnc2)NC(C)=C(C#N)C1c1ccc(F)cc1Cl` (stereo not given): 200 nM; `COC(=O)C1=C(Cn2cncn2)NC(C)=C(C#N)C1c1ccc(F)cc1Cl` (stereo not given): 800 nM.
As to `CCCC1=C(C(=O)OC)C(c2ccccc2Cl)C(C#N)=C(C)N1` (stereo not given), the “inhibition (INH)” value is reported as 71%.

The target of a further data set is Cytochrome P450 2C9 (Homo sapiens, UniProt P11712). Description: Inhibition of CYP2C9. The class given is ADME.
Cytochrome P450 2C9, sequence (P11712 whole entry): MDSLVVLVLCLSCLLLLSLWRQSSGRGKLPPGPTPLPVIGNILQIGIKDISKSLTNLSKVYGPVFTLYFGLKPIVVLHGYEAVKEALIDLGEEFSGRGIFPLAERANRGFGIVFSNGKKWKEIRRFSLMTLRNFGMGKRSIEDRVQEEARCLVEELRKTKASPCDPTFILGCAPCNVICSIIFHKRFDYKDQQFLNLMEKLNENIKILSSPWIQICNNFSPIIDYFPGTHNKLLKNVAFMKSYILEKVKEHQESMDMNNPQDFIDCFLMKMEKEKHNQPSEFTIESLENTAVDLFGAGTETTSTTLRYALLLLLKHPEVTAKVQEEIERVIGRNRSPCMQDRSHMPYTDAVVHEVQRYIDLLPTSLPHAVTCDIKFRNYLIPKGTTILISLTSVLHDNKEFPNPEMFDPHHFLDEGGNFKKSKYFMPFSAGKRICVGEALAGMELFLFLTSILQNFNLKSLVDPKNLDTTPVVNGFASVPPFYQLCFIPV
With `COC(=O)C1=C(C)NC(C)=C(C#N)C1c1ccc(F)cc1Cl` (stereo not given), the “inhibition (INH)” value was determined as 44%.
`COC(=O)C1=C(Cn2cnnn2)NC(C)=C(C#N)C1c1ccc(F)cc1Cl` (stereo not given) yielded an IC50 of 1900 nM.
On the same count and under the same terms, for `COC(=O)C1=C(Cn2ccnc2)NC(C)=C(C#N)C1c1ccc(F)cc1Cl` (stereo not given) the value was 1000 nM.
In turn, `COC(=O)C1=C(Cn2cncn2)NC(C)=C(C#N)C1c1ccc(F)cc1Cl` (stereo not given) registered an IC50 of 100 nM.
`CCCC1=C(C(=O)OC)C(c2ccccc2Cl)C(C#N)=C(C)N1` (stereo not given): the “inhibition (INH)” value stood at 83%.

For another data set, the system named is Liver microsomes. Description: Metabolic stability in rat liver microsomes assessed as compound remaining. Also: time not given here. In kind it is ADME, Microsome.
As for `COC(=O)C1=C(C)NC(C)=C(C#N)C1c1ccc(F)cc1Cl` (stereo not given), the Stability was 14%.
`COC(=O)C1=C(Cn2cnnn2)NC(C)=C(C#N)C1c1ccc(F)cc1Cl` (stereo not given): the Stability was 60%.
On the same count and under the same terms, next, `COC(=O)C1=C(Cn2ccnc2)NC(C)=C(C#N)C1c1ccc(F)cc1Cl` (stereo not given): 64%; `COC(=O)C1=C(Cn2cncn2)NC(C)=C(C#N)C1c1ccc(F)cc1Cl` (stereo not given): 34%.
Still for that read-out and setting: next, `CCCC1=C(C(=O)OC)C(c2ccccc2Cl)C(C#N)=C(C)N1` (stereo not given): 13%.

A further data set has as its system Liver microsomes. Description: Metabolic stability in human liver microsomes assessed as compound remaining. Also: time not given here. The class given is ADME, Microsome.
Consider `COC(=O)C1=C(C)NC(C)=C(C#N)C1c1ccc(F)cc1Cl` (stereo not given), for which the Stability worked out at 37%.
The same measure, in the same setting: for `COC(=O)C1=C(Cn2cnnn2)NC(C)=C(C#N)C1c1ccc(F)cc1Cl` (stereo not given) the value was 3%.
On the same count and under the same terms, for `COC(=O)C1=C(Cn2ccnc2)NC(C)=C(C#N)C1c1ccc(F)cc1Cl` (stereo not given) the value was 8%.
On to `COC(=O)C1=C(Cn2cncn2)NC(C)=C(C#N)C1c1ccc(F)cc1Cl` (stereo not given), for which the Stability was 9%.
Still for that read-out and setting: next, `CCCC1=C(C(=O)OC)C(c2ccccc2Cl)C(C#N)=C(C)N1` (stereo not given): 36%.
